Measurements: patent US9855268B2, “Triazolo[4,5-d]pyrimidine derivatives” (Merck Patent GmbH, priority 2013, dated 2018)
Structures can show the parent of a compound that is named as a salt.

The compounds below were run against GCN2 (Homo sapiens, UniProt Q9P2K8) (assay: GCN2 enzyme assay (TR-FRET Lanthascreen, GFP-eIF2alpha phosphorylation)). Conditions: 10 μM ATP, 80 nM GFP-eIF2a, 30 nM GCN2.
Sequence of GCN2 (Q9P2K8 whole entry, species assumed): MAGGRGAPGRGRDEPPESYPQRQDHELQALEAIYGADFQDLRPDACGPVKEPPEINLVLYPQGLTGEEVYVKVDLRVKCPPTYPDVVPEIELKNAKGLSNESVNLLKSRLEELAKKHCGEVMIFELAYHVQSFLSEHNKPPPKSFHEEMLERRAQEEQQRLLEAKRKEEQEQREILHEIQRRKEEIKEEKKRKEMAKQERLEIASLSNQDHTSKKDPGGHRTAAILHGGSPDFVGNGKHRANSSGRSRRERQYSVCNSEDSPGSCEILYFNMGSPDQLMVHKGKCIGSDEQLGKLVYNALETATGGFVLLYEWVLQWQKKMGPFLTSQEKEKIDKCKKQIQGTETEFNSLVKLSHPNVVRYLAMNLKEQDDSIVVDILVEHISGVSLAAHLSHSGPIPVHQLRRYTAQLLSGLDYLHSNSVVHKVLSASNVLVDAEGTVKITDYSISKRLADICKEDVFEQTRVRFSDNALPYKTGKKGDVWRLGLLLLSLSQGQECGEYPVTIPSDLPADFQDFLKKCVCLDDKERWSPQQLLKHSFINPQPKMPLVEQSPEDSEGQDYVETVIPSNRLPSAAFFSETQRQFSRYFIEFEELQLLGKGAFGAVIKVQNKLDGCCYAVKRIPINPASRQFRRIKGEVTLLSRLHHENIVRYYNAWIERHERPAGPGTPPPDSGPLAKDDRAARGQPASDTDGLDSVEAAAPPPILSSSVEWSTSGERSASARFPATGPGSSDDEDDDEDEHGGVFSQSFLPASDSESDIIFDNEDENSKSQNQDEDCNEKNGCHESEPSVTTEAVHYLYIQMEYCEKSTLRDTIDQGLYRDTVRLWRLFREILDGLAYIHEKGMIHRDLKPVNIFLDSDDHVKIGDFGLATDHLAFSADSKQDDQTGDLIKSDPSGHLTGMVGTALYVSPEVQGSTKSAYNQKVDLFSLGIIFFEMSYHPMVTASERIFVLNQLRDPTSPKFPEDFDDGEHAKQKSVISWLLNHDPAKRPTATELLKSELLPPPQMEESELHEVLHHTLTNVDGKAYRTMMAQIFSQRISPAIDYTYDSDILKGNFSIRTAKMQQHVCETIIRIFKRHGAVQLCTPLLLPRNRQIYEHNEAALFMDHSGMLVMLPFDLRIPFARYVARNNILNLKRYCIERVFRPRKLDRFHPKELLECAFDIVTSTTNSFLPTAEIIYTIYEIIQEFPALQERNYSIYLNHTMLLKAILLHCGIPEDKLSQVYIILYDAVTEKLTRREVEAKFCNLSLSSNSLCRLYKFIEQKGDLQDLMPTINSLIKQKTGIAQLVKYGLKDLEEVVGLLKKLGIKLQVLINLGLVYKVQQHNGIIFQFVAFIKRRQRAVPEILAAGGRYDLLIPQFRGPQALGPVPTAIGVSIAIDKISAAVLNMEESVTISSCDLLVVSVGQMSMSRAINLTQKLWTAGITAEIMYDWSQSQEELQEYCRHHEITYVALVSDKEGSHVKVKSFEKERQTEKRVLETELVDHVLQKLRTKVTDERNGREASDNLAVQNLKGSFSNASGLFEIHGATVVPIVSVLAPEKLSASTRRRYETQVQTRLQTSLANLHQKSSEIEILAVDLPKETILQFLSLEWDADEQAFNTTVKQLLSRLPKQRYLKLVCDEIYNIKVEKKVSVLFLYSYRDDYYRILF
Type: biochemical
Text: GCN2: Assay Principle & Conditions
This assay can quantificate the activity of the serin kinase GCN2 (general control non-derepressible-2).
This kinase is involved in the stress metabolism of cells. It is activated upon starvation (amino acid depletion). Its natural substrate is eIF2a (eukaryotic initiation factor 2 alpha subunit), a translation factor, which gets activated (phosphorylated) by GCN2 in case of an amino acid bottleneck in the cells. This in turn leads to a halt of the protein synthesis. Inhibition of GCN2 results in stopping this mechanism: The cell can not stop protein production upon “starvation” stress.
The assay is run in two steps: the enzymatic reaction and the detection step. In the first step GCN2 is incubated with 10 μM ATP and 80 nM of the GFP-labelled substrate eIF2alpha at room temperature.
The enzymatic reaction is stopped by addition of EDTA. The amount of phosphorylated eIF2alpha is determined by TR-FRET (Lanthascreen): A complex is formed consisting of antibody and GFP labelled phospho-eIF2a, which allows a FRET upon exitation at 340 nm.
Final Concentrations in the Enzymatic Reaction
In the case of CCOc1ccc(-n2nnc3cnc(N[C@@H]4CC[C@@H](O)C4)nc32)cn1 (relative stereo) [A206, (trans)-3-[3-(6-ethoxy-pyridin-3-yl)-3H-[1,2,3]triazolo[4,5-d]pyrimidin-5-ylamino]-cyclopentanol], the IC50 is reported as < 1000 nM. For COc1ccc(-n2nnc3cnc(N[C@@H]4CCN(C(=O)Cn5cccn5)C4)nc32)cc1 [A90, 1-{(R)-3-[3-(4-methoxy-phenyl)-3H-[1,2,3]triazolo[4,5-d]pyrimidin-5-ylamino]-pyrrolidin-1-yl}-2-pyrazol-1-yl-ethanone], the IC50 was < 1000 nM. Work on COc1ccc(-n2nnc3cnc(N[C@H]4CCN(C(=O)CCN(C)C)C4)nc32)cc1 [A92, 3-dimethylamino-1-{(S)-3-[3-(4-methoxy-phenyl)-3H-[1,2,3]triazolo[4,5-d]-pyrimidin-5-ylamino]-pyrrolidin-1-yl}-propan-1-one formate] yielded an IC50 of 1000 to 5000 nM. For O[C@@H]1CC[C@@H](Nc2ncc3nnn(-c4ccc(Br)cc4)c3n2)C1 (relative stereo) [A29, trans-3-[3-(4-bromo-phenyl)-3H-[1,2,3]triazolo[4,5-d]pyrimidin-5-ylamino]cyclopentanol], the IC50 was < 1000 nM. In the case of COc1ccc(-n2nnc3cnc(N[C@@H]4CCN(C(=O)CN(C)C)C4)nc32)cc1 [A83, 2-dimethylamino-1-{(R)-3-[3-(4-methoxy-phenyl)-3H-[1,2,3]triazolo[4,5-d]-pyrimidin-5-ylamino]-pyrrolidin-1-yl}-ethanone formate], the IC50 is reported as < 1000 nM. For COc1ccc(-n2nnc3cnc(N[C@H]4CCOC4)nc32)cc1 [A28, [3-(4-methoxy-phenyl)-3H-[1,2,3]triazolo[4,5-d]pyrimidin-5-yl]-(S)-tetrahydrofuran-3-yl-amine], the IC50 was < 1000 nM. With COc1ccc(-n2nnc3cnc(N[C@@H]4CCN(C(=O)CCN(C)C)C4)nc32)cc1 [A85, 3-dimethylamino-1-{(R)-3-[3-(4-methoxy-phenyl)-3H-[1,2,3]triazolo[4,5-d]-pyrimidin-5-ylamino]-pyrrolidin-1-yl}-propan-1-one formate] the IC50 was < 1000 nM. With CCOc1ccc(-n2nnc3cnc(N[C@@H]4CC[C@H](C(N)=O)C4)nc32)cc1 [A149, (1S,3R)-3-[3-(4-ethoxy-phenyl)-3H-[1,2,3]triazolo[4,5-d]pyrimidin-5-ylamino]-cyclopentanecarboxylic acid amide] the IC50 was < 1000 nM. Nc1cnn(CCCNc2ncc3nnn(-c4ccc(OCCC(=O)O)cc4)c3n2)c1 [A47, 3-(4-{5-[3-(4-amino-pyrazol-1-yl)-propylamino]-[1,2,3]triazolo[4,5-d]pyrimidin-3-yl}-phenoxy)-propionic acid] was tested, and the IC50 was < 1000 nM. COc1ccc(-n2nnc3cnc(NC4CCNCC4)nc32)cc1 [A40, [3-(4-methoxy-phenyl)-3H-[1,2,3]triazolo[4,5-d]pyrimidin-5-yl]-piperidin-4-yl-amine hydrochloride] was tested, and the IC50 was < 1000 nM. For COc1ccc(-n2nnc3cnc(N[C@@H]4CC[C@H](C#N)C4)nc32)cc1 (relative stereo) [A275, cis-3-[3-(4-Methoxy-phenyl)-3H-[1,2,3]triazolo[4,5-d]pyrimidin-5-ylamino]-cyclopentanecarbonitrile], the IC50 was < 1000 nM. For COc1ccc(-n2nnc3cnc(NC4CC(C)(C)N(C)C(C)(C)C4)nc32)cc1 [A15, [3-(4-methoxy-phenyl)-3H-[1,2,3]triazolo[4,5-d]pyrimidin-5-yl]-(1,2,2,6,6-pentamethyl-piperidin-4-yl)-amine], the IC50 was 5000 to 10000 nM. COc1ccc(-n2nnc3cnc(NCCc4ccccc4)nc32)cc1 [B10, [3-(4-methoxy-phenyl)-3H-[1,2,3]triazolo[4,5-d]pyrimidin-5-yl]-phenethyl-amine] showed an IC50 of 1000 to 5000 nM. Compound COc1ccc(-n2nnc3cnc(NC4CN(C(=O)CN(C)C)C4)nc32)cc1 [A62, 2-dimethylamino-1-{3-[3-(4-methoxy-phenyl)-3H-[1,2,3]triazolo[4,5-d]pyrimidin-5-ylamino]-azetidin-1-yl}-ethanone] has an IC50 of 1000 to 5000 nM. With COc1ccc(-n2nnc3cnc(N[C@H]4CC[C@@H](CCO)CC4)nc32)cc1 [A73, cis-2-{4-[3-(4-methoxy-phenyl)-3H-[1,2,3]triazolo[4,5-d]pyrimidin-5-ylamino]-cyclohexyl}-ethanol] the IC50 was < 1000 nM. For COc1ccc(-n2nnc3cnc(N[C@H]4CCN(C(=O)OC(C)(C)C)C4)nc32)cc1 [A66, (S)-3-[3-(4-methoxy-phenyl)-3H-[1,2,3]triazolo[4,5-d]pyrimidin-5-ylamino]-pyrrolidine-1-carboxylic acid tert-butyl ester], the IC50 was 5000 to 10000 nM. With N[C@H]1CC[C@H](Nc2ncc3nnn(-c4ccc(I)cc4)c3n2)CC1 [A53, N-[3-(4-iodo-phenyl)-3H-[1,2,3]triazolo[4,5-d]pyrimidin-5-yl]-cyclohexane-1,4-diamine] the IC50 was < 1000 nM. For N[C@H]1CC[C@H](Nc2ncc3nnn(-c4ccc(F)cc4)c3n2)CC1 [A75, N-[3-(4-fluoro-phenyl)-3H-[1,2,3]triazolo[4,5-d]pyrimidin-5-yl]-(trans)-cyclohexane-1,4-diamine], the IC50 was < 1000 nM. For COc1ccc(-n2nnc3cnc(N[C@@H]4CC[C@H](CNC(=O)OC(C)(C)C)C4)nc32)cc1 (relative stereo) [A117, {(cis)-3-[3-(4-methoxy-phenyl)-3H-[1,2,3]triazolo[4,5-d]pyrimidin-5-ylamino]-cyclopentylmethyl}-carbamic acid tert-butyl ester], the IC50 was < 1000 nM. With COc1ccc(-n2nnc3cnc(N[C@@H]4CC[C@@H](O)C4)nc32)cc1 (racemic) [A10, trans-3-[3-(4-methoxy-phenyl)-3H-[1,2,3]triazolo[4,5-d]pyrimidin-5-ylamino]-cyclopentanol] the IC50 was < 1000 nM. With COc1ccc(-n2nnc3cnc(NC4CCC4)nc32)cc1 [A21, cyclobutyl-[3-(4-methoxy-phenyl)-3H-[1,2,3]triazolo[4,5-d]pyrimidin-5-yl]-amine] the IC50 was < 1000 nM. Work on COc1ccc(-n2nnc3cnc(N[C@H]4CC[C@H](CNC(=O)OC(C)(C)C)CC4)nc32)cc1 [A33, {4-[3-(4-methoxy-phenyl)-3H-[1,2,3]triazolo[4,5-d]pyrimidin-5-ylamino]-cyclohexylmethyl}-carbamic acid tert-butyl ester] yielded an IC50 of 1000 to 5000 nM. Work on COc1ccc(-n2nnc3cnc(NC4C5CN(C)CC54)nc32)cc1 (centres unmarked) [A19, [3-(4-methoxy-phenyl)-3H-[1,2,3]triazolo[4,5-d]pyrimidin-5-yl]-(3-methyl-3-aza-bicyclo[3.1.0]hex-6-yl)-amine] yielded an IC50 of 5000 to 10000 nM. For COc1ccc(-n2nnc3cnc(NCCCN4CCN(C)CC4)nc32)cc1 [A13, [3-(4-methoxy-phenyl)-3H-[1,2,3]triazolo[4,5-d]pyrimidin-5-yl]-[3-(4-methyl-piperazin-1-yl)-propyl]-amine], the IC50 was 1000 to 5000 nM. For COc1ccc(-n2nnc3cnc(N[C@H]4CC[C@@H](NC(=O)OCc5ccccc5)C4)nc32)cc1 [A89, {(1R,3S)-3-[3-(4-methoxy-phenyl)-3H-[1,2,3]triazolo[4,5-d]pyrimidin-5-ylamino]-cyclopentyl}-carbamic acid benzyl ester], the IC50 was 1000 to 5000 nM. For COc1ccc(-n2nnc3cnc(N[C@H]4CC[C@@H](O)CC4)nc32)cc1 [A26, cis-4-[3-(4-methoxy-phenyl)-3H-[1,2,3]triazolo[4,5-d]pyrimidin-5-ylamino]-cyclohexanol], the IC50 was < 1000 nM. In the case of CCn1cc(-c2ccc(-n3nnc4cnc(N[C@H]5CC[C@H](N)CC5)nc43)cc2)cn1 [A54, N-{3-[4-(1-ethyl-1H-pyrazol-4-yl)-phenyl]-3H-[1,2,3]triazolo[4,5-d]pyrimidin-5-yl}-(trans)-cyclohexane-1,4-diamine trifluoroacetate], the IC50 is reported as < 1000 nM. In the case of CCOc1ccc(-n2nnc3cnc(NCCc4cnn(C)c4)nc32)cc1 [B7, [3-(4-ethoxy-phenyl)-3H-[1,2,3]triazolo[4,5-d]pyrimidin-5-yl]-[2-(1-methyl-1H-pyrazol-4-yl)-ethyl]-amine], the IC50 is reported as < 1000 nM. For COc1ccc(-n2nnc3cnc(NC4CCCC4)nc32)cc1 [A12, cyclopentyl-[3-(4-methoxy-phenyl)-3H-[1,2,3]triazolo[4,5-d]pyrimidin-5-yl]-amine], the IC50 was < 1000 nM. COc1ccc(-n2nnc3cnc(NC4CCOCC4)nc32)cc1 [A3, [3-(4-methoxy-phenyl)-3H-[1,2,3]triazolo[4,5-d]pyrimidin-5-yl]-(tetrahydro-pyran-4-yl)-amine] showed an IC50 of 1000 to 5000 nM. With COc1ccc(-n2nnc3cnc(NC4CCN(CCN5CCCC5)CC4)nc32)cc1 [A86, [3-(4-methoxy-phenyl)-3H-[1,2,3]triazolo[4,5-d]pyrimidin-5-yl]-[1-(2-pyrrolidin-1-yl-ethyl)-piperidin-4-yl]-amine] the IC50 was < 1000 nM. In the case of COc1ccc(-n2nnc3cnc(N[C@H]4CC[C@@H](O)C4)nc32)cc1 (relative stereo) [A27, cis-3-[3-(4-methoxy-phenyl)-3H-[1,2,3]triazolo[4,5-d]pyrimidin-5-ylamino]-cyclopentanol], the IC50 is reported as 1000 to 5000 nM. In the case of COc1ccc(-n2nnc3cnc(N[C@H]4CC[C@H](SC)C4)nc32)cc1 (relative stereo) [A262, [3-(4-methoxy-phenyl)-3H-[1,2,3]triazolo[4,5-d]pyrimidin-5-yl]-((trans)-3-methylsulfanyl-cyclopentyl)-amine], the IC50 is reported as < 1000 nM. COc1ccc(-n2nnc3cnc(N[C@H]4C[C@@H](O)C4)nc32)cc1 [A25, cis-3-[3-(4-methoxy-phenyl)-3H-[1,2,3]triazolo[4,5-d]pyrimidin-5-ylamino]-cyclobutanol] was tested, and the IC50 was < 1000 nM. With COC(=O)[C@@H]1CC[C@@H](Nc2ncc3nnn(-c4ccc(OC)cc4)c3n2)C1 [A113, (1R,3R)-3-[3-(4-methoxy-phenyl)-3H-[1,2,3]triazolo[4,5-d]pyrimidin-5-ylamino]-cyclopentanecarboxylic acid methyl ester] the IC50 was < 1000 nM.
